What all share (assay type): cell-based
In one test the target is T1, hNav1.2 sodium channel (Homo sapiens, UniProt Q99250).
T1 construct: expressed in transfected cells
The test can be described thus: Nav1.2 use-dependent block, whole-cell voltage clamp, 10 Hz pulse train. Conditions: Chantest conditions, read-out: NAV1.2 UDB-10 HZ % Inhibition. From the text:
Wild-type (WT) cDNA stably transfected in Chinese hamster ovary (CHO) cells is used to record INa. Unless otherwise noted, all reagents are purchased from Sigma-Aldrich (St Louis, Mo., U.S.A.).
Whole-cell voltage-clamp recordings are used to measure the biophysical properties of WT. Briefly, the pipette solution consists of (in mM) 110 CsF, 10 NaF, 20 CsCl, 2 EGTA, 10 HEPES, with a pH of 7.35 and osmolarity of 300 mOsmol/kg. The bath (control) solution contains in (mM): 145 NaCl, 4 KCl, 1.8 CaCl2, 1 MgCl2, 10 dextrose, 10 HEPES, with a pH of 7.35 and osmolarity of 310 mOsmol/kg. Cells are allowed to stabilize for 10 min after establishment of the whole-cell configuration before current is measured. Series resistance is compensated 90% to assure that the command potential is reached within microseconds with a voltage error<2 mV. Leak currents are subtracted by using an online P/4 procedure and all currents are low-pass Bessel filtered at 5 kHz and digitized at 50 kHz.
Tonic block of peak current is measured using a step to −10 mV (20 ms) from a holding potential of −120 mV (0.2 Hz). Use-dependent block of peak current is measured during pulse number 300 of a pulse train (−10 mV, 5 ms, 300 pulses, 10 Hz or 25 Hz) from a holding potential of −120 mV. Currents are then normalized to the peak current recorded in response to the first pulse in each frequency train. For tonic block studies, peak current is evaluated in response to a 20 ms depolarization to −10 mV (0.2 Hz). Two sequential pulse train stimulations are averaged to obtain mean current traces for each recording condition, which are then used for offline subtraction and analysis.
A stock solution of 10 mM compound of Formula I is prepared in 0.1 M HCl or DMSO. A fresh dilution of the compound of Formula I in the bath solution is prepared every experimental day and the pH is readjusted to 7.35 as necessary. The final DMSO concentration was kept at 0.1% in all solutions. Direct application of the perfusion solution to the clamped cell is achieved using the Perfusion Pencil system (Automate, Berkeley, Calif.). Direct cell perfusion is driven by gravity at a flow rate of 350 μL/min using a 250 micron tip. This system sequesters the clamped cell within a perfusion stream and enables complete solution exchange within 1 second. The clamped cell is perfused continuously starting immediately after establishing the whole-cell configuration. Control currents are measured during control solution perfusion.
Solutions are perfused for three minutes prior to current recordings to allow equilibrium (tonic) drug block. Tonic block of peak currents is measured from this steady-state condition. Three sequential current traces are averaged to obtain a mean current for each recording. The mean current traces are utilized for offline analysis.

Test [1] deals with wild-type human cardiac sodium channel, hNav1.5 (Homo sapiens, UniProt Q14524). Put plainly: Late INa screening assay (QPatch whole cell patch clamp, tefluthrin-enhanced late sodium current). As to conditions: HEK293 hNav1.5, late INa activated with 10 μM Tefluthrin. The method, boiled down: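 Automated whole-cell patch clamp of HEK293 cells stably expressing hNav1.5 (no β subunits), 23-25 °C. Late current enhanced by 10 μM tefluthrin, 250 ms steps to −20 mV from −120 mV at 0.1 Hz, measured 225-250 ms. Compounds typically 1 μM, three additions over 7-8 min; % block normalised to 0 Na baseline.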
wild-type human cardiac sodium channel, hNav1.5, sequence (Q14524 whole entry): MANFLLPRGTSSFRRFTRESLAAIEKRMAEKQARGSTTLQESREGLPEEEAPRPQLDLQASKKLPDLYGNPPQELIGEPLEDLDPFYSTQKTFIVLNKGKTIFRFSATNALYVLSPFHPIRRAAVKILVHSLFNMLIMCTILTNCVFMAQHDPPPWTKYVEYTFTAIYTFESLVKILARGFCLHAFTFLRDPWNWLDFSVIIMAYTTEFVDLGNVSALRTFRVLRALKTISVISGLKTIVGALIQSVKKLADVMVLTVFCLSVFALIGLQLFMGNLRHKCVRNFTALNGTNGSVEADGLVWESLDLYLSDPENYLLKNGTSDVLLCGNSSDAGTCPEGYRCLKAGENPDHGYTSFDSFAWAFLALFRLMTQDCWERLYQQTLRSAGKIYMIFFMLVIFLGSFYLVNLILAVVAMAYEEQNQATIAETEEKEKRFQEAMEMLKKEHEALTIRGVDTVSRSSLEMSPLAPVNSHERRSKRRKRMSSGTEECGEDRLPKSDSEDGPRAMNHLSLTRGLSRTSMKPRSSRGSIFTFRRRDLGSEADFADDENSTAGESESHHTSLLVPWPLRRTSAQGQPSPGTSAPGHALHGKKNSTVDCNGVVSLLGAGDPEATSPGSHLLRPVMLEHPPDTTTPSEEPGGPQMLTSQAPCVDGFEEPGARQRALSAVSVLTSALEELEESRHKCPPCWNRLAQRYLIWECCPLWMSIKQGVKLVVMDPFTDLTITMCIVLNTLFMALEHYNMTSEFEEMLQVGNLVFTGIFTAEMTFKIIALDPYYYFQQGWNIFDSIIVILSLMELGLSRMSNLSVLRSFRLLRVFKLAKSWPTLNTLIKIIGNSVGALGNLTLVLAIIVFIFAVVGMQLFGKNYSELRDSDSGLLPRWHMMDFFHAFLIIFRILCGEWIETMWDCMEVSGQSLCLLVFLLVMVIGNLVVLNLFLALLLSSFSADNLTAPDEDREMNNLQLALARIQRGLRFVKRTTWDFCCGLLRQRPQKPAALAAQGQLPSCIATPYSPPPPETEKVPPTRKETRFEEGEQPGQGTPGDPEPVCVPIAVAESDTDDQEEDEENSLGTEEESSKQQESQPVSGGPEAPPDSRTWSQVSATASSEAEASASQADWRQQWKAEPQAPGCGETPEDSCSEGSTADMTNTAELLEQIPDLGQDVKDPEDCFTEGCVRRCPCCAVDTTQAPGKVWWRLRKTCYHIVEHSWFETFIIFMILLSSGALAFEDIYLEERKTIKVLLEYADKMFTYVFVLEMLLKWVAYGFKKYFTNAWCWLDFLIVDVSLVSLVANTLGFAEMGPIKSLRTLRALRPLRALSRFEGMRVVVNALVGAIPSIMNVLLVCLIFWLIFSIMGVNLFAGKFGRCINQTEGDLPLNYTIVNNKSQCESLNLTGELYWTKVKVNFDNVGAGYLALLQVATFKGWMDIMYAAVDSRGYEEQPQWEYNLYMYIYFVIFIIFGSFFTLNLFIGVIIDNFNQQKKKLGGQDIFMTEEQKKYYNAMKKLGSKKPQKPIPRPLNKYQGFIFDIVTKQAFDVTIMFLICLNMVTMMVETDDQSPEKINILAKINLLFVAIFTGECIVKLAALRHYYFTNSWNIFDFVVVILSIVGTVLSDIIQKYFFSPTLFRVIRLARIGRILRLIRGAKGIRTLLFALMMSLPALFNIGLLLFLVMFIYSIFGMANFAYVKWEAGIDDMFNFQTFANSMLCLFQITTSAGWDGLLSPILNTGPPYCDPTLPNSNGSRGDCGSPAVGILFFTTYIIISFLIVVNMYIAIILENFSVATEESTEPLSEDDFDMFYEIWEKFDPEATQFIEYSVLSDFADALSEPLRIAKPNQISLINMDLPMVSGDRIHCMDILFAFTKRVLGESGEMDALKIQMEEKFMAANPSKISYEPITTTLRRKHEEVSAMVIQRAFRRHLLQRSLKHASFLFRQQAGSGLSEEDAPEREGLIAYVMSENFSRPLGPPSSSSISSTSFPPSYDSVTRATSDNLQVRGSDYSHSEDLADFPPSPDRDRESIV
For orientation: Patch clamp records ionic current or voltage across a cell membrane.

The target of a further test is T2, human Nav1.1 (Homo sapiens, UniProt P35498).
T2 construct: expressed in transfected cells; host or cells: HEK293, transient transfection (Qiagen Superfect), α1:β1:β2 at 10:1:1
The test can be described thus: Nav1.1 use-dependent block, whole-cell voltage clamp, 10 Hz pulse train. Conditions: Chantest conditions, read-out: NAV1.1 UDB-10 HZ % Inhibition.

Each structure is given as a SMILES string.

T1 sequence (Q99250 whole entry): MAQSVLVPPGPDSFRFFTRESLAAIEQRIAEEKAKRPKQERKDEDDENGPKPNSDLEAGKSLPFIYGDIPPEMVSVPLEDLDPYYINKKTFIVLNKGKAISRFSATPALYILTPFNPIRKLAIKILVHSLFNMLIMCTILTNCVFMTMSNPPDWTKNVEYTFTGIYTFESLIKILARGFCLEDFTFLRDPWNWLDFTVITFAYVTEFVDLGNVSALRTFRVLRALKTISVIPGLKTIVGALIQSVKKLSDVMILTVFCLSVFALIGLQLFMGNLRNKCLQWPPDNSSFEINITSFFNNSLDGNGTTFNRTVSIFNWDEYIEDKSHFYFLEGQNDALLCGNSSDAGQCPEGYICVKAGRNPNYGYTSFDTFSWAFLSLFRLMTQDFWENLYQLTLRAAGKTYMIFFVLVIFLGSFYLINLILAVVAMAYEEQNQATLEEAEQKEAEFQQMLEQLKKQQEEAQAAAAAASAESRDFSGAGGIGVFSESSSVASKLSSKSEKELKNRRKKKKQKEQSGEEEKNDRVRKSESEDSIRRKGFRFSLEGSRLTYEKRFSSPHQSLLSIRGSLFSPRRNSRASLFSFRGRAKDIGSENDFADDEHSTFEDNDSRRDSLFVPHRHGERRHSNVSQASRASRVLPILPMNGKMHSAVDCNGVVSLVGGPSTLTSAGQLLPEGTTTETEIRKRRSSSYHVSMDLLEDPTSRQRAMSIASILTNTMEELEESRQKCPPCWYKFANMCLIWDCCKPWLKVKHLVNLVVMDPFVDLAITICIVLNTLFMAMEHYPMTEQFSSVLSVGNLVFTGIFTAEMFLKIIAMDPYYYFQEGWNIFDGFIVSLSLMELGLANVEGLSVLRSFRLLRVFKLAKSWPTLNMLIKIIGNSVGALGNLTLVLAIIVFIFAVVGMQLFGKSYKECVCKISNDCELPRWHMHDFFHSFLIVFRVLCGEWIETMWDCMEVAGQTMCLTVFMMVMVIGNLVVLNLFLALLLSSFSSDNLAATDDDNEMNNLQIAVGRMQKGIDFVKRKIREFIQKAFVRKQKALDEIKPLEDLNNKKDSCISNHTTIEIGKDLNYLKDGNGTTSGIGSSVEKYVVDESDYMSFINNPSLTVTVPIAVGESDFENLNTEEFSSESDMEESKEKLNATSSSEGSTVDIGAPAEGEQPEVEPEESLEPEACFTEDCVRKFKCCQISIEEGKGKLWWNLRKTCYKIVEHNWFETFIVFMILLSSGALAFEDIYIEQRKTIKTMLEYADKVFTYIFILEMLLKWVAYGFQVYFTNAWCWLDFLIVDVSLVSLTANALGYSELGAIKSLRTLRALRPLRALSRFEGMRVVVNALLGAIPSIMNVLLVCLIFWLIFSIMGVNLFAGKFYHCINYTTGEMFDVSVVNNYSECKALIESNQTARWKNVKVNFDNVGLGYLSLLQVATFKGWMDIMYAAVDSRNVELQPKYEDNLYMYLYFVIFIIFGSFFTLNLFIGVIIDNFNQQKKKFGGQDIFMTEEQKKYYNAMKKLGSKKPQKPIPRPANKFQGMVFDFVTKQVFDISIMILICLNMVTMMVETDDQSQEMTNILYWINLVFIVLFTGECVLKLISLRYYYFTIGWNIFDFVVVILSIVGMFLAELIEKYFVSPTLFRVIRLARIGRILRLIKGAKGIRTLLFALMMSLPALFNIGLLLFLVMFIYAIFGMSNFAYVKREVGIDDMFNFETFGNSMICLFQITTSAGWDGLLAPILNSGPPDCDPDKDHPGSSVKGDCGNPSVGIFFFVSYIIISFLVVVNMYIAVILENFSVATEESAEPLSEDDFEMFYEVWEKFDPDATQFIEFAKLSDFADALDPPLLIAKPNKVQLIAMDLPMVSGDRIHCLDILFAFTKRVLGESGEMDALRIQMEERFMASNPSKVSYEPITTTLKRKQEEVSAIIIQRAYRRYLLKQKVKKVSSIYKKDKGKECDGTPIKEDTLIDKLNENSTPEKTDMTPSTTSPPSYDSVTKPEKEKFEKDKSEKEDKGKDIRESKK

The term inhibition denotes the percentage by which the read-out fell short of the control. As for `Cc1c(Cl)nc2n1CCOc1ccc(-c3ccc(C(F)(F)F)cc3)cc1-2` [Compound I-14, 2-chloro-3-methyl-10-(4-(trifluoromethyl)phenyl)-5,6-dihydrobenzo[f]imidazo[1,2-d][1,4]oxazepine], the inhibition at 1 µM on hNav1.2 sodium channel was 4%; in test [1], 11%; at human Nav1.1, 0%.
